The values that follow come from patent US20240208992A1, “MACROCYCLES AS CFTR MODULATORS” (Idorsia Pharmaceuticals Ltd, priority 2021, published 2024).

The structures appear in SMILES notation.

In this experiment the target is human F508del-CFTR (Homo sapiens, UniProt P13569, DEL508-508). In words: F508del-CFTR cell surface expression (corrector activity), DiscoveRx ß-galactosidase complementation chemiluminescence assay in recombinant U2OS cell line.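 Further: U2OS cells co-expressing ProLink-tagged F508del-CFTR and a membrane-anchored enzyme acceptor, where more surface CFTR restores β-galactosidase activity measured by chemiluminescence.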
Sequence of human F508del-CFTR (P13569 with tags, fused parts or gaps DEL508-508): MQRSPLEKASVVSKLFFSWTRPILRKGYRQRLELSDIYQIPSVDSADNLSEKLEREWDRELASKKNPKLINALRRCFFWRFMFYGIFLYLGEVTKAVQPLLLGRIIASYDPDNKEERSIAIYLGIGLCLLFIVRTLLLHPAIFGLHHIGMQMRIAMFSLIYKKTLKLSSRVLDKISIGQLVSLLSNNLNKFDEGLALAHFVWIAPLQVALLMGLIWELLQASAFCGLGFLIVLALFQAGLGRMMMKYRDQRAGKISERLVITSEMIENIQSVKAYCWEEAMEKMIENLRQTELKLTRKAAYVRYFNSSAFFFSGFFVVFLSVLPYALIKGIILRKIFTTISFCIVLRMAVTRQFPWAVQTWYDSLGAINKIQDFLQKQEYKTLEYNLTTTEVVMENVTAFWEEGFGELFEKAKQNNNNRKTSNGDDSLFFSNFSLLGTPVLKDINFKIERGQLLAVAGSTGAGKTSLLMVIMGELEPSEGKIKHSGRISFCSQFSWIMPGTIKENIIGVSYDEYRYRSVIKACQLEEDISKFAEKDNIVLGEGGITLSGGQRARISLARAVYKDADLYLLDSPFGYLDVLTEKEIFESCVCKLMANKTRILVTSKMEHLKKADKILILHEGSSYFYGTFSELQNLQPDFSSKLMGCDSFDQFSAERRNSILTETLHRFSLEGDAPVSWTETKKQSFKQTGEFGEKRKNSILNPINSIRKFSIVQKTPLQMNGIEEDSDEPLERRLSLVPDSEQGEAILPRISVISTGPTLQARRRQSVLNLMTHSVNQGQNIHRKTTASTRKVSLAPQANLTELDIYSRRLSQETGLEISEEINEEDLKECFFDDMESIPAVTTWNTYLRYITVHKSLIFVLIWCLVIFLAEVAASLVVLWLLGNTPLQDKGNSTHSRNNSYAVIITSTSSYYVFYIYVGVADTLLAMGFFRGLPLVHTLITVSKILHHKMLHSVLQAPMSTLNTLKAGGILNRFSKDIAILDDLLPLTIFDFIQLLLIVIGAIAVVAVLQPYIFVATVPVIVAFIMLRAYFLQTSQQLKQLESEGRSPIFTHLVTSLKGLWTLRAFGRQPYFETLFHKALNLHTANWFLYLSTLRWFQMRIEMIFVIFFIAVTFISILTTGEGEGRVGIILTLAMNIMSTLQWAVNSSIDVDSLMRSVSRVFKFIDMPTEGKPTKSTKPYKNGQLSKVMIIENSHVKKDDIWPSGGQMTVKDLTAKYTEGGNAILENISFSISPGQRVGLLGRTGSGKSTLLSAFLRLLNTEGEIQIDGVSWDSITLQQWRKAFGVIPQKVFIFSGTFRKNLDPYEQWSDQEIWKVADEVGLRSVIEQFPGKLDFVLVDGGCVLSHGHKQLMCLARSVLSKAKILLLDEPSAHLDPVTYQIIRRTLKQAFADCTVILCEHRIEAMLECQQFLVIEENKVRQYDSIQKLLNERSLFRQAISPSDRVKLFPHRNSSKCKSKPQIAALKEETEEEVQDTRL
[1] abbreviates: EC50, F508del-CFTR cell surface expression, U2OS cells, 16h compound incubation, geomean values.
Setting [2] is: U2OS, in relation to Emax of corrector lumacaftor (=100%), arithmetic mean values.
[3] abbreviates: in relation to Emax of corrector lumacaftor (=100%), arithmetic mean values.
Setting [4] is: EC50, F508del-CFTR cell surface expression, U2OS cell line, 16h compound incubation, geomean values.
Setting [5] is: U2OS, in relation to the Emax of the corrector lumacaftor (=100%), U2OS cell line, 16h compound incubation, arithmetic mean values.

The term EC50 denotes the concentration giving half of the maximal effect. A word on the Emax: it is the size of the effect at its maximum, as opposed to the concentration needed. Turning to `Cc1cc(CCNC(=O)[C@@H]2CC(=O)N(C)[C@@H](CC(C)C)C(=O)N(C)[C@@H](COC(C)(C)C)C(=O)N[C@H](Cc3ccccc3)COc3ccc4ccccc4c3C(=O)N2)on1` (racemic) [Example 719, (3S,7S,10RS,13R)-13-benzyl-10-(tert-butoxymethyl)-7-isobutyl-6,9-dimethyl-N-(2-(3-methylisoxazol-5-yl)ethyl)-1,5,8,11-tetraoxo-1,2,3,4,5,6,7,8,9,10,11,12,13,14-tetradecahydronaphtho[1,2-p][1]oxa[4,7,10,14]tetraazacycloheptadecine-3-carboxamide], under setting [1], the EC50 was 124 nM. Also, under setting [2], the maximal response (Emax) is 313%. On the same counts, the results for `Cc1cc(CCNC(=O)[C@@H]2CC(=O)N(C)[C@@H](CC(C)C)C(=O)N(C)[C@@H](CO)C(=O)N[C@H](Cc3ccccc3)COc3ccc4ccccc4c3C(=O)N2)on1` (racemic) [Example 720, (3S,7S,10RS,13R)-13-benzyl-10-(hydroxymethyl)-7-isobutyl-6,9-dimethyl-N-(2-(3-methylisoxazol-5-yl)ethyl)-1,5,8,11-tetraoxo-1,2,3,4,5,6,7,8,9,10,11,12,13,14-tetradecahydronaphtho[1,2-p][1]oxa[4,7,10,14]tetraazacycloheptadecine-3-carboxamide] are 881 nM and 24%. On the same counts, the results for `Cc1nc2ccc3c(c2o1)C(=O)N[C@H](C(=O)NCCc1cccc([C@H](C)O)c1)CC(=O)N(C)[C@@H](CC(C)C)C(=O)N(CCC1CCCCC1)CC(=O)N[C@H](Cc1ccccc1)CO3` (racemic) [Example 728, (8R,14S,18S)-8-benzyl-12-(2-cyclohexylethyl)-N-(3-((RS)-1-hydroxyethyl)phenethyl)-14-isobutyl-2,15-dimethyl-10,13,16,20-tetraoxo-7,8,9,10,11,12,13,14,15,16,17,18,19,20-tetradecahydrooxazolo[4′,5′:5,6]benzo[1,2-p][1]oxa[4,7,10,14]tetraazacycloheptadecine-18-carboxamide] are 235 nM and 232%. Take `COc1nccc2c1C(=O)NC(C(=O)NCCc1cc(C3CC3)no1)CC(=O)N(C)C(CC(C)C)C(=O)N(C)C(CC1CCC(F)(F)CC1)C(=O)NC(Cc1ccccc1)CO2` (single isomer, unassigned) [Example 661]: under setting [1], the EC50 stood at 421 nM. Moreover, the Emax under setting [3] turned out to be 247%.

For the compound `COc1nccc2c1C(=O)NC(C(=O)NCCc1cc(C3CC3)no1)CC(=O)N(C)C(CC(C)C)C(=O)N(C)C(CC1CCC(F)(F)CC1)C(=O)NC(Cc1ccccc1)CO2` (single isomer, unassigned) [Example 662], the EC50 under setting [1] was 124 nM. In addition, the Emax under setting [3] is on record as 297%. Regarding `COc1nccc2c1C(=O)N[C@H](C(=O)NCCc1cc(C3CC3)no1)CC(=O)N(C)[C@@H](CC(C)C)C(=O)N1CCC3(CC3)C[C@@H]1C(=O)N[C@H](Cc1ccccc1)CO2` (single isomer, unassigned) [Example 669, (7′S,11′S,17a′S,20′R)-20′-benzyl-N-(2-(3-cyclopropylisoxazol-5-yl)ethyl)-11′-isobutyl-4′-methoxy-10′-methyl-5′,9′,12′,18′-tetraoxo-5′,6′,7′,8′,9′,10′,11′,12′,14′,15′,17′,17a′,18′,19′,20′,21′-hexadecahydrospiro[cyclopropane-1,16′-dipyrido[2,1-f:3′,4′-p][1]oxa[4,7,10,14]tetraazacycloheptadecine]-7′-carboxamide], the EC50 under setting [1] amounted to 856 nM. Further, under setting [2], the Emax was 230%. `COc1nccc2c1C(=O)N[C@H](C(=O)NCCc1cc(C3CC3)no1)CC(=O)N(C)[C@@H](CC(C)C)C(=O)N1CC[C@@H](c3ccccc3)C[C@H]1C(=O)N[C@H](Cc1ccccc1)CO2` (single isomer, unassigned) [Example 671]: the concentration giving a half-maximal response (EC50) under setting [1] came to 235 nM. Also, under setting [2], the Emax came out at 179%.

As for `CC(C)C[C@H]1C(=O)N2CC[C@H](c3ccccc3)C[C@H]2C(=O)N[C@H](Cc2ccccc2)COc2cnc3ccccc3c2C(=O)N[C@H](C(=O)NCCc2cc(C3CC3)no2)CC(=O)N1C` (single isomer, unassigned) [Example 674], the EC50 under setting [1] worked out at 262 nM. Besides, under setting [2], the Emax came out at 133%. Regarding `COc1cc(CCNC(=O)[C@@H]2CC(=O)N(C)[C@@H](CC(C)C)C(=O)N3CCCC[C@@H]3C(=O)N[C@H](Cc3ccccc3)COc3ccc4ncc(F)cc4c3C(=O)N2)on1` (single isomer, unassigned) [Example 899], the EC50 (EC50, F508del-CFTR cell surface expression, U2OS cells, 16h compound incubation, geomean of several measurements) worked out at 819 nM. Further, for the setting “U2OS, in relation to the Emax of the corrector lumacaftor (=100%), U2OS cells, 16h compound incubation, arithmetic mean”, the Emax came to 294%. In the case of `CCC(=O)CCCCC[C@@H]1NC(=O)[C@H]2CCCCN2C(=O)[C@H]([C@@H](C)CC)NC(=O)[C@H](Cc2cn(OC)c3ccccc23)NC1=O` [Apicidin, reference compound], where the note is “EC50, recombinant U2OS cell line (DiscoveRx) expressing PK-tagged human F508del-CFTR, 16h compound incubation, same conditions as example compounds”, the EC50 was over 20000 nM. Take `CC(C)C[C@H]1C(=O)N(CCC2CCCCC2)CC(=O)N[C@H](Cc2ccccc2)COc2cc3c(cc2C(=O)N[C@H](C(=O)NCCc2ccc4c(c2)OCO4)CC(=O)N1C)OCO3` [Example 2, (7R,13S,17S)-N-(2-(benzo[d][1,3]dioxol-5-yl)ethyl)-7-benzyl-11-(2-cyclohexylethyl)-13-isobutyl-14-methyl-9,12,15,19-tetraoxo-6,7,8,9,10,11,12,13,14,15,16,17,18,19-tetradecahydro-[1,3]dioxolo[4′,5′:4,5]benzo[1,2-p][1]oxa[4,7,10,14]tetraazacycloheptadecine-17-carboxamide]: the EC50 under setting [4] was 110 nM. Also, the Emax under setting [5] was 150%. Take `COc1cc2c(cc1OC)C(=O)N[C@H](C(=O)NCCc1ccc3c(c1)CCCO3)CC(=O)N(C)[C@@H](CC(C)C)C(=O)N(C)CC(=O)N[C@H](Cc1ccccc1)CO2` [Example 3, (3R,9S,13S)-3-benzyl-N-(2-(chroman-6-yl)ethyl)-9-isobutyl-17,18-dimethoxy-7,10-dimethyl-5,8,11,15-tetraoxo-2,3,4,5,6,7,8,9,10,11,12,13,14,15-tetradecahydrobenzo[p][1]oxa[4,7,10,14]tetraazacycloheptadecine-13-carboxamide]: the EC50 under setting [4] stood at 816 nM. For the same compound, under setting [5], the Emax came to 151%. In the same order, the values of `COc1cc2c(cc1OC)C(=O)N[C@H](C(=O)NCCc1ccc3ccoc3c1)CC(=O)N(C)[C@@H](CC(C)C)C(=O)N(C)CC(=O)N[C@H](Cc1ccccc1)CO2` [Example 4, (3R,9S,13S)-N-(2-(benzofuran-6-yl)ethyl)-3-benzyl-9-isobutyl-17,18-dimethoxy-7,10-dimethyl-5,8,11,15-tetraoxo-2,3,4,5,6,7,8,9,10,11,12,13,14,15-tetradecahydrobenzo[p][1]oxa[4,7,10,14]tetraazacycloheptadecine-13-carboxamide] are 673 nM and 195%.

For `CN1CC(=O)N[C@H](Cc2ccccc2)COc2cc3c(cc2C(=O)N[C@H](C(=O)NCCc2ccc4c(c2)OCO4)CC(=O)N(C)[C@@H](CC2CCC2)C1=O)OCO3` [Example 7, (7R,13S,17S)-N-(2-(benzo[d][1,3]dioxol-5-yl)ethyl)-7-benzyl-13-(cyclobutylmethyl)-11,14-dimethyl-9,12,15,19-tetraoxo-6,7,8,9,10,11,12,13,14,15,16,17,18,19-tetradecahydro-[1,3]dioxolo[4′,5′:4,5]benzo[1,2-p][1]oxa[4,7,10,14]tetraazacycloheptadecine-17-carboxamide], the EC50 under setting [4] is 398 nM. For the same compound, under setting [5], the maximal response (Emax) came to 118%. Consider `COc1cc2c(cc1OC)C(=O)N[C@H](C(=O)NCCc1ccc3c(c1)OCCN3C)CC(=O)N(C)[C@@H](CC(C)C)C(=O)N(C)CC(=O)N[C@H](Cc1ccccc1)CO2` [Example 8, (3R,9S,13S)-3-benzyl-9-isobutyl-17,18-dimethoxy-7,10-dimethyl-N-(2-(4-methyl-3,4-dihydro-2H-benzo[b][1,4]oxazin-7-yl)ethyl)-5,8,11,15-tetraoxo-2,3,4,5,6,7,8,9,10,11,12,13,14,15-tetradecahydrobenzo[p][1]oxa[4,7,10,14]tetraazacycloheptadecine-13-carboxamide], for which, under setting [4], the EC50 turned out to be 887 nM. For the same compound, the Emax under setting [5] was 210%.

In the case of `COc1cccc(CCNC(=O)[C@@H]2CC(=O)N(C)[C@@H](CC(C)C)C(=O)N3CCCC[C@@H]3C(=O)N[C@H](Cc3ccccc3)COc3ccc4ncn(C)c4c3C(=O)N2)c1` [Example 17, (8S,12S,18aR,21R)-21-benzyl-12-isobutyl-N-(3-methoxyphenethyl)-5,11-dimethyl-6,10,13,19-tetraoxo-6,7,8,9,10,11,12,13,16,17,18,18a,19,20,21,22-hexadecahydro-5H,15H-imidazo[4′,5′:5,6]benzo[1,2-p]pyrido[2,1-f][1]oxa[4,7,10,14]tetraazacycloheptadecine-8-carboxamide], the half-maximal effective concentration (EC50) under setting [4] is 466 nM. The Emax under setting [5] came to 180%.

Consider `COc1cccc2c1C(=O)N[C@H](C(=O)NCCc1cnccn1)CC(=O)N(C)[C@@H](CC(C)C)C(=O)N(CCC1CCCCC1)CC(=O)N[C@H](Cc1ccccc1)CO2` [Example 18, (3R,9S,13S)-3-benzyl-7-(2-cyclohexylethyl)-9-isobutyl-16-methoxy-10-methyl-5,8,11,15-tetraoxo-N-(2-(pyrazin-2-yl)ethyl)-2,3,4,5,6,7,8,9,10,11,12,13,14,15-tetradecahydrobenzo[p][1]oxa[4,7,10,14]tetraazacycloheptadecine-13-carboxamide], for which the EC50 under setting [4] was 388 nM. Under setting [5], the Emax was determined as 117%.
